Reference: patent US7772197B2, “1,3,5-triazines for treatment of viral diseases” (1,3,5-Triazines for Treatment of Viral Diseases, priority 2002, dated 2010)

Key:
[1] = Cytotoxicity on MT-2 cells (MTT); assay type: cell-based; conditions: human
Experimental: For each compound, cytotoxicity was evaluated on MT-2 cells. MT-2 cells were seeded at 3×10^4 cells/well in 96-well plates. […] After 5 days growth in a 37° C. incubator containing 5% CO2, MTT was added to a final concentration of 0.5 mg/ml and then incubated for four hours at 37° C. 10% SDS in 0.02 N HCl was added to lyse the cells overnight at 37° C. The plates were read on a Tecan Genius microplate reader at wavelengths of 570 nm/650 nm. The dose response curve was graphed by comparing the treated cells with the untreated control and the IC50 was determined for each compound.

[2] = Toxicology in SCID-Hu Thy/Liv mice; assay type: in vivo; conditions: up to 100 mg/kg/day subcutaneously, 21 days
Experimental: After completion of this toxicology experiment, SN1212 was tested in HIV infected SCID-Hu mice. […] The discordance between viral infectivity and conventional surrogate markers of viral load, such as p24 or HIV RNA, is not surprising, as it has also been observed in vitro, and reflects the increased proportion of non-infectious viral particles in the presence of SN1212. It is also interesting to note that, of the treated groups, the immunologic profile of the SN1212 groups most closely resemble that of the uninfected group. This is compatible with the finding that infection with less “fit” viruses provides a relative clinical benefit by preserving cellular immunity.

Q: Which results are given for NC1=NC(=O)N([C@H]2C[C@H](O)[C@@H](CO)O2)CN1 [DHAdC, 1-(2-Deoxy-β-D-ribofuranosyl)-4-amino-1,2,5,6-tetrahydro-1,3,5-triazin-2-one]?
A: IC50 at 5 days [1]: > 1000 µM; toxicity [2]: without any significant toxicity
